Reference: patent publication EP0392663A1, “Carboline derivative as a 5-HT3 receptor antagonist” (ONO PHARMACEUTICAL CO., LTD., priority 1989, dated 1990)
Where a name gives a salt, the structure may show the parent alone.

Tests used:
5-HT₃ receptor = experiment: Suppression of 5-HT-induced reflex bradycardia in urethane-anesthetized rats (5-HT₃ receptor antagonism in vivo); parameters: species or system Male Wistar rats; conditions: 5-HT i.v. 2 mins after
Method: Male Wistar rats were urethane-anesthetized and fixed. Cannulas were inserted to carotid artery and thigh vein as used for the recording of blood pressure end heart beat, and for the administration of compounds, respectively.
Several amounts of compound of the present invention were administered to the vein or duodenum. 5-HT was administered rapidly to the vein, 2 mins after. The suppression effect of the compounds was confirmed by the measurement of reflex bradycardia generated. (Nature 316, 11 (1985).)

[1] = Acute toxicity (LD₅₀) in mice; conditions: mouse, in vivo
Method: It was confirmed that the toxicity of the compounds of the present invention were very low. Therefore, the compounds of the present invention may be considered to be sufficiently safe and suitable for pharmaceutical use.
For example, the values of acute toxicity (LD₅₀) of 2-(5-methylimidazol-4-ylmethyl)-5-methyl-1,2-dihydro-γ--carbolin-1-one hydrochloride was 290 mg/kg animal body weight by oral administration and 48 mg/kg animal body weight by intravenous administration in mice, respectively.

With `Cc1[nH]cnc1Cn1ccc2c(c1=O)c1ccccc1n2C` [2-(5-methylimidazol-4-ylmethyl)-5-methyl-1,2-dihydro-γ-carbolin-1-one hydrochloride] the ID₅₀ i.d. (5-HT₃ receptor; compound administered to the duodenum) was 7.7 mg/kg, the ID₅₀ i.v. (5-HT₃ receptor; compound administered to the vein) was 0.3 mg/kg and the LD50 ([1]; intravenous administration) was 48 mg/kg. For the same compound, the LD50 ([1]; oral administration) was 290 mg/kg.
